Patent US20240400560A1, “BICYCLIC HETEROCYCLIC DERIVATIVE HAVING VIRAL GROWTH INHIBITORY ACTIVITY AND PHARMACEUTICAL COMPOSITION CONTAINING SAME” (Shionogi & Co., Ltd., priority 2021, published 2024)
Where two headings read alike, the source gives them in different places.

What was measured:
[1] = biological target: SARS-CoV-2 3CL protease (Severe acute respiratory syndrome coronavirus 2, UniProt P0DTD1); experiment: Inhibitory activity test against SARS-CoV-2 3CL proteases; assay type: biochemical
[2] = system: SARS-CoV-2; experiment: Inhibitory activity of cytopathic effect (CPE) in HEK293T/ACE2-TMPRSS2 cells; assay type: cell-based; conditions: Severe acute respiratory syndrome coronavirus 2, HEK-293T, 72 h
[3] = read-out: IC50 (50% SARS-CoV-2 3CL protease inhibitory concentration)
[4] = HEK293T/ACE2-TMPRSS2 cells, cultured 3 days, CellTiter-Glo 2.0 luminescence, read-out: EC50 (50% SARS-CoV-2 infected cell death inhibitory concentration)
[5] = 50% SARS-CoV-2 infected cell death inhibitory concentration, HEK293T/ACE2-TMPRSS2 cells, CellTiter-Glo 2.0 after 3 days culture, read-out: EC50
[6] = IC50 (50% SARS-CoV-2 3CL protease inhibitory concentration)
[7] = read-out: EC50 (50% SARS-CoV-2 infected cell death inhibitory concentration)

## COc1nc2c(=O)n(Cc3ncn(C)n3)c(=O)n(Cc3cc(Cl)c(F)cc3C)c2cc1-c1nc(C(C)(C)O)ccc1Cl [Compound I-0882]
[1]; [3]
  IC50: < 100 nM
[2]; [4]
  EC50: < 100 nM

## COc1nc(N2CC[C@@H](O)C2)cc2c1c(=O)n(-c1cncc(OCF)c1)c(=O)n2-c1ccc(F)c(Cl)c1 [Compound I-0956]
[1]; [3]
  IC50: < 100 nM
[2]; [4]
  EC50: < 100 nM

## COc1nc(N2CC[C@@H](OC(F)F)C2)cc2c1c(=O)n(-c1cnc3cc(F)ccn13)c(=O)n2-c1ccc(F)c(F)c1 [Compound I-1024]
[1]; [3]
  IC50: < 100 nM
[2]; [4]
  EC50: < 100 nM

## COc1nc(N2CC[C@@H](C(=O)N(C)C)C2)cc2c1c(=O)n(-c1cnc3cc(F)ccn13)c(=O)n2-c1ccc(F)c(Cl)c1 [Compound I-1045]
[1]; [3]
  IC50: < 100 nM
[2]; [4]
  EC50: < 100 nM

## Cn1cnc(Cn2c(=O)c3c4nc[nH]c4c(-c4cc(C#N)ccc4Cl)cc3n(Cc3cc(F)c(F)c(F)c3)c2=O)n1 [Compound I-0712]
[1]; [3]
  IC50: 100 to 1000 nM
[2]; [4]
  EC50: 100 to 1000 nM

## Cn1cnc(Cn2c(=O)c3c4nccnc4c(NC4CC5CC5C4)cc3n(Cc3cc(F)c(F)c(Cl)c3)c2=O)n1 (stereo not shown) [Compound I-0586]
[1]; [3]
  IC50: < 100 nM
[2]; [4]
  EC50: < 100 nM

## Cn1cnc(Cn2c(=O)c3c4c(c(-c5cc(C#N)ccc5Cl)cc3n(Cc3cc(F)c(F)c(Cl)c3)c2=O)CCO4)n1 [Compound I-0811]
[1]; [3]
  IC50: < 100 nM
[2]; [4]
  EC50: < 100 nM

## Cn1cnc(Cn2c(=O)c3c(cc(-c4cc(C#N)ccc4Cl)n4ccnc34)n(Cc3cc(F)c(F)c(F)c3)c2=O)n1 [Compound I-0642]
[1]; [3]
  IC50: 3 nM
[2]; [5]
  EC50: 640 nM

## COc1nc(N2CC[C@@H](O)C2)cc2c1c(=O)n(-c1cncc(OC(F)F)c1)c(=O)n2-c1ccc(F)c(Cl)c1 [Compound I-0968]
[1]; [3]
  IC50: < 100 nM
[2]; [4]
  EC50: < 100 nM

## COc1nc2c(=O)n(Cc3ncn(C)n3)c(=O)n(Cc3cc(F)c(F)c(Cl)c3)c2cc1-c1nc(C(=O)NC2COC2)ccc1Cl [Compound I-0885]
[1]; [3]
  IC50: < 100 nM
[2]; [4]
  EC50: < 100 nM

## [2H]C([2H])([2H])O[C@@H]1CCN(c2cc3c(c(OC)n2)c(=O)n(-c2cncc(F)c2)c(=O)n3-c2ccc(F)c(F)c2)C1 [Compound I-1028]
[1]; [3]
  IC50: < 100 nM
[2]; [4]
  EC50: < 100 nM

## CCOc1nc2cc(-c3cc(OC)c4c(=O)n(Cc5ncn(C)n5)c(=O)n(Cc5cc(F)c(F)c(F)c5)c4c3)c(Cl)cc2[nH]1 [Compound I-0852]
[1]; [3]
  IC50: < 100 nM
[2]; [4]
  EC50: 100 to 1000 nM

## [2H]C([2H])([2H])O[C@@H]1CCN(c2cc3c(c(OC)n2)c(=O)n(-c2cc(C)cnn2)c(=O)n3-c2ccc(F)c(Cl)c2)C1 [Compound I-0972]
[1]; [3]
  IC50: < 100 nM
[2]; [4]
  EC50: < 100 nM

## COc1nc(N2CCC(S(C)(=O)=O)C2)cc2c1c(=O)n(-c1cncc(Cl)c1)c(=O)n2-c1ccc(F)c(Cl)c1 (stereo not shown) [Compound I-0974]
[1]; [3]
  IC50: < 100 nM
[2]; [4]
  EC50: < 100 nM

## COc1nc(N2[C@@H]3CC[C@H]2CNC3)cc2c1c(=O)n(-c1cnc3cc(F)ccn13)c(=O)n2-c1ccc(F)c(Cl)c1 [Compound I-0729]
[1]; [6]
  IC50: < 100 nM
[2]; [7]
  EC50: < 100 nM

## COc1nc(N2CC[C@@H](C(=O)N3CCOCC3)C2)cc2c1c(=O)n(-c1cnc3cc(F)ccn13)c(=O)n2-c1ccc(F)c(Cl)c1 [Compound I-0627]
[1]; [3]
  IC50: < 100 nM
[2]; [4]
  EC50: < 100 nM

## COc1nc2c(=O)n(Cc3ncn(C)n3)c(=O)n(Cc3cc(F)c(F)c(Cl)c3)c2cc1-c1cc2c(cc1Cl)NC(=O)C2 [Compound I-0700]
[1]; [3]
  IC50: 0.92 nM
[2]; [5]
  EC50: 24.5 nM

## COc1nc(N2CC[C@@H](F)C2)cc2c1c(=O)n(Cc1ncn(C)n1)c(=O)n2-c1cc(Cl)c(F)c(Cl)c1 [Compound I-0803]
[1]; [3]
  IC50: 32 nM
[2]; [5]
  EC50: 17.6 nM

## CCN(C)c1cc2c(c(OC)n1)c(=O)n(-c1cnc3cc(F)ccn13)c(=O)n2-c1ccc(F)c(Cl)c1 [Compound I-0993]
[1]; [3]
  IC50: < 100 nM
[2]; [4]
  EC50: < 100 nM

## COc1nc(N2CC[C@@H](O)C2)cc2c1c(=O)n(-c1cncc(F)c1)c(=O)n2-c1ccc(F)c(F)c1 [Compound I-1044]
[1]; [3]
  IC50: < 100 nM
[2]; [4]
  EC50: < 100 nM

## COc1nc(N2CC[C@@H](C#N)C2)cc2c1c(=O)n(Cc1ncn(C)n1)c(=O)n2Cc1cc(F)c(F)c(F)c1 [Compound I-0598]
[1]; [3]
  IC50: 18 nM
[2]; [5]
  EC50: 13.6 nM

## COc1cc(-c2cc(C#N)ccc2Cl)cc2c1c(=O)n(Cc1ncn(C)n1)c(=O)n2[C@H](C)c1cc(F)c(F)c(F)c1 [Compound I-0595]
[1]; [3]
  IC50: < 100 nM
[2]; [4]
  EC50: < 100 nM

## Cn1cnc(Cn2c(=O)c3c4c(c(N5CCC(F)(F)C5)cc3n(Cc3cc(F)c(F)c(Cl)c3)c2=O)CCO4)n1 [Compound I-0814]
[1]; [3]
  IC50: < 100 nM
[2]; [4]
  EC50: < 100 nM

## CCN(CC)c1cc2c(c(OC)n1)c(=O)n(-c1cnc3cc(F)ccn13)c(=O)n2-c1ccc(F)c(Cl)c1 [Compound I-1058]
[1]; [3]
  IC50: < 100 nM
[2]; [4]
  EC50: < 100 nM

## COc1nc(N2C3CCC(O)C2CC3)cc2c1c(=O)n(Cc1ncn(C)n1)c(=O)n2Cc1cc(F)c(F)c(F)c1 (stereo not shown) [Compound I-0610]
[1]; [6]
  IC50: < 100 nM
[2]; [7]
  EC50: < 100 nM

## COc1nc(N2CCC(O)(C(F)(F)F)C2)cc2c1c(=O)n(-c1cncc(Cl)c1)c(=O)n2-c1ccc(F)c(Cl)c1 (stereo not shown) [Compound I-1064]
[1]; [3]
  IC50: < 100 nM
[2]; [4]
  EC50: < 100 nM

## [2H]C([2H])([2H])O[C@@H]1CCN(c2cc3c(c(OC)n2)c(=O)n(-c2cnc4cc(F)ccn24)c(=O)n3-c2ccc(F)c(C(F)F)c2)C1 [Compound I-0981]
[1]; [3]
  IC50: < 100 nM
[2]; [4]
  EC50: < 100 nM

## COc1nc(N2CCC(F)(F)C2)cc2c1c(=O)n(-c1cnc3ccccn13)c(=O)n2-c1ccc(F)c(Cl)c1 [Compound I-0808]
[1]; [3]
  IC50: < 100 nM
[2]; [4]
  EC50: < 100 nM

## COc1nc(C(C)C)cc2c1c(=O)n(-c1cnc3cc(F)ccn13)c(=O)n2-c1ccc(F)c(Cl)c1 [Compound I-0976]
[1]; [3]
  IC50: < 100 nM
[2]; [4]
  EC50: < 100 nM

## COc1c(-c2cc(C#N)ccc2Cl)cc2c(c(=O)n(Cc3ncn(C)n3)c(=O)n2Cc2cc(F)c(F)c(F)c2)[n+]1[O-] [Compound I-0709]
[1]; [3]
  IC50: 100 to 1000 nM
[2]; [4]
  EC50: 1000 to 10000 nM

## O=c1[nH]c(N2CCC[C@@H]2CO)cc2c1c(=O)n(-c1cnc3ccccn13)c(=O)n2Cc1cc(F)c(F)c(Cl)c1 [Compound I-0623]
[1]; [3]
  IC50: < 100 nM
[2]; [4]
  EC50: < 100 nM

## COc1nc(N2CC[C@@H](F)C2)cc2c1c(=O)n(-c1cnc3cc(F)ccn13)c(=O)n2-c1ccc(F)c(F)c1 [Compound I-0982]
[1]; [3]
  IC50: < 100 nM
[2]; [4]
  EC50: < 100 nM

## COc1nc(N2CC[C@@H](O)C2)cc2c1c(=O)n(-c1cnc3cc(F)ccn13)c(=O)n2Cc1cc(F)c(F)c(Cl)c1 [Compound I-0734]
[1]; [3]
  IC50: < 100 nM
[2]; [4]
  EC50: < 100 nM

## CCn1c(-c2cc(C#N)ccc2Cl)cc2c(c1=O)c(=O)n(-c1cnc3cc(F)ccn13)c(=O)n2Cc1cc(F)c(F)c(F)c1 [Compound I-0739]
[1]; [3]
  IC50: 0.98 nM
[2]; [5]
  EC50: 115 nM

## COc1nc(N2CCC(F)(F)C2)cc2c1c(=O)n(-c1cncc(C)c1)c(=O)n2-c1ccc(F)c(Cl)c1 [Compound I-0954]
[1]; [3]
  IC50: < 100 nM
[2]; [4]
  EC50: < 100 nM

## COc1nc(N2CC[C@@H](O)C2)cc2c1c(=O)n(-c1cnc3cc(F)c(Cl)cn13)c(=O)n2-c1ccc(F)c(Cl)c1 [Compound I-0952]
[1]; [3]
  IC50: < 100 nM
[2]; [4]
  EC50: < 100 nM

## COc1nc(N2[C@@H]3CC[C@H]2CNC3)cc2c1c(=O)n(-c1cc(C)cnn1)c(=O)n2Cc1cc(F)c(F)c(F)c1 [Compound I-0926]
[1]; [6]
  IC50: 5.1 nM
[2]
  EC50: 106 nM

## Cn1cnc(Cn2c(=O)c3c4nccnc4c(-c4cc5c(cc4Cl)NC(=O)C5)cc3n(Cc3cc(F)c(F)c(F)c3)c2=O)n1 [Compound I-0933]
[1]; [3]
  IC50: < 100 nM
[2]; [4]
  EC50: 100 to 1000 nM
